The values that follow are results of earlier work, collected in paper PMC8674003 (CPT: Pharmacometrics & Systems Pharmacology, 2021).

Positions of bridges follow the written chain, without caps; N, C: chain ends. Non-standard residues stand in square brackets, D forms with d. Residues, ends and D or L forms follow the SMILES beside them. *: point of attachment. X1 = CC[C@H](C)CCCCC(=O)*; Dab = NCC[C@H](N)C(=O)O

For series [1] the following is noted: IV.
The conditions of series [2]: components administered individually to Sprague-Dawley rats.
[3] abbreviates: M4 (Wang et al.), 2 CMT, Phoenix NLME (7.0), 46 patients.

On to `CC[C@H](C)CCCCC(=O)N[C@@H](CCN)C(=O)N[C@H](C(=O)N[C@@H](CCN)C(=O)N[C@H]1CCNC(=O)[C@H]([C@@H](C)O)NC(=O)[C@H](CCN)NC(=O)[C@H](CCN)NC(=O)[C@H](CC(C)C)NC(=O)[C@@H](Cc2ccccc2)NC(=O)[C@H](CCN)NC1=O)[C@@H](C)O` [polymyxin B, Polymyxin B] (X1-[Dab]T[Dab][Dab][Dab][dF]L[Dab][Dab]T; lactam 4-C), for which, in series [1] (setting [3]), the “Q, intercompartmental clearance” value is reported as 13.52 L/h; the “V1, typical volume of central compartment” value is recorded as 6.22 L; the “V2, typical volume of peripheral compartment” value is 11.92 L. Also, in series [1] (M7 (Yu et al.), 1 CMT, NONMEM (7.4), 32 patients), the “V, volume of distribution” value was 20.5 L.
Regarding `CC[C@H](C)CCCCC(=O)N[C@@H](CCN)C(=O)N[C@H](C(=O)N[C@@H](CCN)C(=O)N[C@H]1CCNC(=O)[C@H]([C@@H](C)O)NC(=O)[C@H](CCN)NC(=O)[C@H](CCN)NC(=O)[C@H](CC(C)C)NC(=O)[C@@H](Cc2ccccc2)NC(=O)[C@H](CCN)NC1=O)[C@@H](C)O` [polymyxin B1] (X1-[Dab]T[Dab][Dab][Dab][dF]L[Dab][Dab]T; lactam 4-C), the “Plasma protein binding, B1 compared with B2” value in series [2] is recorded as “higher compared with B2”.
